# Source: PMC11317875 (Chemical Science, 2024)
# System: Wild-type Mycobacterium bovis BCG
# Assay: not given
# Format: cell-based
# Details: 100 μM probe
row,SMILES,accumulation in cytosolic extracts
1,OC[C@H]1O[C@H](O[C@H]2O[C@H](CO)[C@@H](F)[C@H](O)[C@H]2O)[C@H](O)[C@@H](O)[C@@H]1O [4F-Tre],not
2,"OC[C@H]1O[C@H](O[C@H]2O[C@H](CF)[C@@H](O)[C@H](O)[C@H]2O)[C@H](O)[C@@H](O)[C@@H]1O [6F-Tre, 6-deoxy-6-fluoro-trehalose]",accumulate

# System: Mycobacterium tuberculosis
# Assay: Time dependent F-Tre uptake, HPAEC-PAD of cytosolic extracts
# Format: cell-based
# Details: 100 μM probe, cytosolic extracts
# Experimental: lyophilised, resuspended in 1 mL 18 MΩ H2O and filtered through a 10-kDa molecular weight cut-off centrifuge filter (Amicon) and the filtrate analysed. HPAEC-PAD was performed on a Dionex ICS5000+ system with a CarboPac PA-20 analytical column (3 mm x 150 mm) and PA-20 guard column (3 mm x 30 mm) kept at 20 °C. Pulsed amperometry with standard quadrupole waveform was used for detection. The system was equipped with an autosampler that was set up to inject 10 μL sample volumes. Multistep gradient […]
# Chromeleon 7 software (Dionex) was used for data processing.
# Table S11: High performance anion exchange chromatography KOH elution gradient for F-Tre analysis Time (min) KOH conc. (mM) Flow rate (mL/min)
# To quantify uptake, the peak area of 2F-Tre, 3F-Tre and 6F-Tre standards at varying concentrations were measured (Chromeleon 7 software). The peak area was plotted against concentration and simple linear regression was plotted. To determine the concentration of F-Tre analogues in cytosolic samples the area of the peaks of interest was measured (Chromeleon 7 software) and the concentration determined from the calibration […]
# Time dependent F-Tre uptake
# M. tuberculosis was grown to an OD600 of 0.8, then 2F-Tre, 3F-Tre, 4F-Tre or 6F-Tre were added to a final concentration of 100 µM. Controls with the equivalent volume of water or equivalent concentration of trehalose were also prepared. 5 mL aliquots were taken at T=0, 0.5, 1, 1.5, 2, 3, 4, 6, 8 h and the cells were harvested by centrifugation (2,916 x g, 5 min, 22 ° C) and washed (5 mL PBST) three times. The pellets were then resuspended in 1 mL H2O and lysed by mechanical disruption using 0.1 mm zirconia/silica beads (BioSpec Products) on a FastPrep (MP Biomedicals) ribolyser (4 x 45 s cycles with 90 s on ice in between).
# Samples were then centrifuged (16,200 x g, 10 min, 22 °C) and the supernatant collected, lyophilised, resuspended in 1 mL 18 MΩ H2O and filtered through a 10-kDa molecular weight cut-off centrifuge filter (Amicon). The filtrate was analysed by HPAEC-PAD and quantified as described above.
row,SMILES,accumulation rate
1,"OC[C@H]1O[C@H](O[C@H]2O[C@H](CF)[C@@H](O)[C@H](O)[C@H]2O)[C@H](O)[C@@H](O)[C@@H]1O [6F-Tre, 6-deoxy-6-fluoro-trehalose]",0.82 µM/h

# Same assay, conditions: Time 0 h, 100 µM probe
row,SMILES,Mtb cytosolic concentration
1,OC[C@H]1O[C@H](O[C@H]2O[C@H](CO)[C@@H](F)[C@H](O)[C@H]2O)[C@H](O)[C@@H](O)[C@@H]1O [4F-Tre],0 µM
2,"OC[C@H]1O[C@H](O[C@H]2O[C@H](CF)[C@@H](O)[C@H](O)[C@H]2O)[C@H](O)[C@@H](O)[C@@H]1O [6F-Tre, 6-deoxy-6-fluoro-trehalose]",0 ± 0 µM

# Same assay, conditions: Time 0.5 h, 100 µM probe
row,SMILES,Mtb cytosolic concentration
1,OC[C@H]1O[C@H](O[C@H]2O[C@H](CO)[C@@H](F)[C@H](O)[C@H]2O)[C@H](O)[C@@H](O)[C@@H]1O [4F-Tre],0 µM
2,"OC[C@H]1O[C@H](O[C@H]2O[C@H](CF)[C@@H](O)[C@H](O)[C@H]2O)[C@H](O)[C@@H](O)[C@@H]1O [6F-Tre, 6-deoxy-6-fluoro-trehalose]",342 ± 16 µM

# Same assay, conditions: Time 1 h, 100 µM probe
row,SMILES,Mtb cytosolic concentration
1,OC[C@H]1O[C@H](O[C@H]2O[C@H](CO)[C@@H](F)[C@H](O)[C@H]2O)[C@H](O)[C@@H](O)[C@@H]1O [4F-Tre],0 µM
2,"OC[C@H]1O[C@H](O[C@H]2O[C@H](CF)[C@@H](O)[C@H](O)[C@H]2O)[C@H](O)[C@@H](O)[C@@H]1O [6F-Tre, 6-deoxy-6-fluoro-trehalose]",797 ± 224 µM

# Same assay, conditions: Time 1.5 h, 100 µM probe
row,SMILES,Mtb cytosolic concentration
1,OC[C@H]1O[C@H](O[C@H]2O[C@H](CO)[C@@H](F)[C@H](O)[C@H]2O)[C@H](O)[C@@H](O)[C@@H]1O [4F-Tre],0 µM
2,"OC[C@H]1O[C@H](O[C@H]2O[C@H](CF)[C@@H](O)[C@H](O)[C@H]2O)[C@H](O)[C@@H](O)[C@@H]1O [6F-Tre, 6-deoxy-6-fluoro-trehalose]",1392 ± 83 µM

# Same assay, conditions: Time 2 h, 100 µM probe
row,SMILES,Mtb cytosolic concentration
1,OC[C@H]1O[C@H](O[C@H]2O[C@H](CO)[C@@H](F)[C@H](O)[C@H]2O)[C@H](O)[C@@H](O)[C@@H]1O [4F-Tre],0 µM
2,"OC[C@H]1O[C@H](O[C@H]2O[C@H](CF)[C@@H](O)[C@H](O)[C@H]2O)[C@H](O)[C@@H](O)[C@@H]1O [6F-Tre, 6-deoxy-6-fluoro-trehalose]",1804 ± 111 µM

# Same assay, conditions: Time 4 h, 100 µM probe
row,SMILES,Mtb cytosolic concentration
1,OC[C@H]1O[C@H](O[C@H]2O[C@H](CO)[C@@H](F)[C@H](O)[C@H]2O)[C@H](O)[C@@H](O)[C@@H]1O [4F-Tre],0 µM
2,"OC[C@H]1O[C@H](O[C@H]2O[C@H](CF)[C@@H](O)[C@H](O)[C@H]2O)[C@H](O)[C@@H](O)[C@@H]1O [6F-Tre, 6-deoxy-6-fluoro-trehalose]",2945 ± 234 µM

# Same assay, conditions: Time 6 h, 100 µM probe
row,SMILES,Mtb cytosolic concentration
1,OC[C@H]1O[C@H](O[C@H]2O[C@H](CO)[C@@H](F)[C@H](O)[C@H]2O)[C@H](O)[C@@H](O)[C@@H]1O [4F-Tre],0 µM
2,"OC[C@H]1O[C@H](O[C@H]2O[C@H](CF)[C@@H](O)[C@H](O)[C@H]2O)[C@H](O)[C@@H](O)[C@@H]1O [6F-Tre, 6-deoxy-6-fluoro-trehalose]",4694 ± 237 µM

# Same assay, conditions: Time 8 h, 100 µM probe
row,SMILES,Mtb cytosolic concentration
1,OC[C@H]1O[C@H](O[C@H]2O[C@H](CO)[C@@H](F)[C@H](O)[C@H]2O)[C@H](O)[C@@H](O)[C@@H]1O [4F-Tre],0 µM
2,"OC[C@H]1O[C@H](O[C@H]2O[C@H](CF)[C@@H](O)[C@H](O)[C@H]2O)[C@H](O)[C@@H](O)[C@@H]1O [6F-Tre, 6-deoxy-6-fluoro-trehalose]",6843 ± 43 µM

# Same assay, conditions: up to the 8 hour timepoint
row,SMILES,saturation of uptake
1,"OC[C@H]1O[C@H](O[C@H]2O[C@H](CF)[C@@H](O)[C@H](O)[C@H]2O)[C@H](O)[C@@H](O)[C@@H]1O [6F-Tre, 6-deoxy-6-fluoro-trehalose]",no saturation of uptake

# System: Mtb
# Assay: not given
# Format: cell-based, Mycobacterium tuberculosis
# Details: not given
row,SMILES,presence in trehalose glycolipids
1,OC[C@H]1O[C@H](O[C@H]2O[C@H](CO)[C@@H](F)[C@H](O)[C@H]2O)[C@H](O)[C@@H](O)[C@@H]1O [4F-Tre],not found in any trehalose glycolipid

# Same assay, conditions: 100 μM probe
row,SMILES,new spots in the lipid extracts (TLC)
1,OC[C@H]1O[C@H](O[C@H]2O[C@H](CO)[C@@H](F)[C@H](O)[C@H]2O)[C@H](O)[C@@H](O)[C@@H]1O [4F-Tre],No new spots
2,"OC[C@H]1O[C@H](O[C@H]2O[C@H](CF)[C@@H](O)[C@H](O)[C@H]2O)[C@H](O)[C@@H](O)[C@@H]1O [6F-Tre, 6-deoxy-6-fluoro-trehalose]",new spots

# Same assay, conditions: 100 μM probe; Fig. 8 shows Mtb and M. bovis BCG
SMILES,additional band in the TDM region (TLC),additional lower polarity bands than TMM (TLC)
"OC[C@H]1O[C@H](O[C@H]2O[C@H](CF)[C@@H](O)[C@H](O)[C@H]2O)[C@H](O)[C@@H](O)[C@@H]1O [6F-Tre, 6-deoxy-6-fluoro-trehalose]",no additional band in the TDM region,one

# Target: LpqY (Mycolicibacterium thermoresistibile, UniProt G7CES0)
# Sequence (G7CES0 29-471): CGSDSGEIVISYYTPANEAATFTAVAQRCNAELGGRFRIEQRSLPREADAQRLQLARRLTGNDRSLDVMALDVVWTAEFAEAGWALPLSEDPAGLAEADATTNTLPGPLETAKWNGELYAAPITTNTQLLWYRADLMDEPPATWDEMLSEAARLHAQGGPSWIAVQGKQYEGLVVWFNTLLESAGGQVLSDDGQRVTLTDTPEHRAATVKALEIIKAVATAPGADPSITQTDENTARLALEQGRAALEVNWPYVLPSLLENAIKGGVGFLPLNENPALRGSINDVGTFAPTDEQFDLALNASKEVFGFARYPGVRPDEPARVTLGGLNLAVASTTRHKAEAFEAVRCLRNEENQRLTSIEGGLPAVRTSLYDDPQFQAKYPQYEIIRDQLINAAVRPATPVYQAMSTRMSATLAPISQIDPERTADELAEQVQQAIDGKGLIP
# Assay: Microscale thermophoresis (MST) binding to LpqY
# Details: not given
row,SMILES,Kd
1,OC[C@H]1O[C@H](O[C@H]2O[C@H](CO)[C@@H](F)[C@H](O)[C@H]2O)[C@H](O)[C@@H](O)[C@@H]1O [4F-Tre],1480 ± 75.6 µM
2,"OC[C@H]1O[C@H](O[C@H]2O[C@H](CF)[C@@H](O)[C@H](O)[C@H]2O)[C@H](O)[C@@H](O)[C@@H]1O [6F-Tre, 6-deoxy-6-fluoro-trehalose]",90.3 ± 0.9 µM

# Same assay, conditions: MST
row,SMILES,affinity range
1,OC[C@H]1O[C@H](O[C@H]2O[C@H](CO)[C@@H](F)[C@H](O)[C@H]2O)[C@H](O)[C@@H](O)[C@@H]1O [4F-Tre],millimolar range

# Same assay, conditions: compared with 3F-Tre, 6F-Tre and unmodified trehalose
row,SMILES,fold weaker binding to LpqY
1,OC[C@H]1O[C@H](O[C@H]2O[C@H](CO)[C@@H](F)[C@H](O)[C@H]2O)[C@H](O)[C@@H](O)[C@@H]1O [4F-Tre],~16 fold

# System: Mycobacterium tuberculosis
# Assay: F-Tre uptake at a single time point, HPAEC-PAD of cytosolic extracts
# Format: cell-based
# Details: 0-200 μM probe, ion chromatography of cytosolic extracts
row,SMILES,uptake / accumulation in Mtb cells
1,OC[C@H]1O[C@H](O[C@H]2O[C@H](CO)[C@@H](F)[C@H](O)[C@H]2O)[C@H](O)[C@@H](O)[C@@H]1O [4F-Tre],No uptake
2,"OC[C@H]1O[C@H](O[C@H]2O[C@H](CF)[C@@H](O)[C@H](O)[C@H]2O)[C@H](O)[C@@H](O)[C@@H]1O [6F-Tre, 6-deoxy-6-fluoro-trehalose]",significant dose-dependent increase in the accumulation

# Same assay, conditions: Mtb + 25 µM F-Tre, HPAEC trace
row,SMILES,Peak area of F-Tre peak
1,"OC[C@H]1O[C@H](O[C@H]2O[C@H](CF)[C@@H](O)[C@H](O)[C@H]2O)[C@H](O)[C@@H](O)[C@@H]1O [6F-Tre, 6-deoxy-6-fluoro-trehalose]",0.144 nC*min

# Same assay, conditions: Mtb + 50 µM F-Tre, HPAEC trace
row,SMILES,Peak area of F-Tre peak
1,"OC[C@H]1O[C@H](O[C@H]2O[C@H](CF)[C@@H](O)[C@H](O)[C@H]2O)[C@H](O)[C@@H](O)[C@@H]1O [6F-Tre, 6-deoxy-6-fluoro-trehalose]",0.506 nC*min

# Same assay, conditions: Mtb + 100 µM F-Tre, HPAEC trace
row,SMILES,Peak area of F-Tre peak
1,"OC[C@H]1O[C@H](O[C@H]2O[C@H](CF)[C@@H](O)[C@H](O)[C@H]2O)[C@H](O)[C@@H](O)[C@@H]1O [6F-Tre, 6-deoxy-6-fluoro-trehalose]",0.866 nC*min

# Same assay, conditions: Mtb + 200 µM F-Tre, HPAEC trace
row,SMILES,Peak area of F-Tre peak
1,"OC[C@H]1O[C@H](O[C@H]2O[C@H](CF)[C@@H](O)[C@H](O)[C@H]2O)[C@H](O)[C@@H](O)[C@@H]1O [6F-Tre, 6-deoxy-6-fluoro-trehalose]",1.604 nC*min

# System: M. bovis BCG
# Assay: not given
# Format: cell-based, Mycobacterium bovis BCG
# Details: not given
row,SMILES,presence in trehalose glycolipids
1,OC[C@H]1O[C@H](O[C@H]2O[C@H](CO)[C@@H](F)[C@H](O)[C@H]2O)[C@H](O)[C@@H](O)[C@@H]1O [4F-Tre],not found in any trehalose glycolipid

# Same assay, conditions: 100 μM probe
row,SMILES,new spots in the lipid extracts (TLC)
1,OC[C@H]1O[C@H](O[C@H]2O[C@H](CO)[C@@H](F)[C@H](O)[C@H]2O)[C@H](O)[C@@H](O)[C@@H]1O [4F-Tre],No new spots
2,"OC[C@H]1O[C@H](O[C@H]2O[C@H](CF)[C@@H](O)[C@H](O)[C@H]2O)[C@H](O)[C@@H](O)[C@@H]1O [6F-Tre, 6-deoxy-6-fluoro-trehalose]",new spots
